SMILES strings stand for the structures.

For the assay, the target named is SHP2 (Homo sapiens (Human), UniProt Q06124). Put plainly: SHP2 Allosteric Inhibition Assay (DiFMUP prompt fluorescence). It is filed as biochemical. The settings on record: 0.25 nM SHP2 activated with 0.5 μM peptide IRS1_pY1172(dPEG8)pY1222; substrate DiFMUP 100 μM. From the text: SHP2 Allosteric Inhibition Assay.
Sequence of SHP2 (Q06124 whole entry): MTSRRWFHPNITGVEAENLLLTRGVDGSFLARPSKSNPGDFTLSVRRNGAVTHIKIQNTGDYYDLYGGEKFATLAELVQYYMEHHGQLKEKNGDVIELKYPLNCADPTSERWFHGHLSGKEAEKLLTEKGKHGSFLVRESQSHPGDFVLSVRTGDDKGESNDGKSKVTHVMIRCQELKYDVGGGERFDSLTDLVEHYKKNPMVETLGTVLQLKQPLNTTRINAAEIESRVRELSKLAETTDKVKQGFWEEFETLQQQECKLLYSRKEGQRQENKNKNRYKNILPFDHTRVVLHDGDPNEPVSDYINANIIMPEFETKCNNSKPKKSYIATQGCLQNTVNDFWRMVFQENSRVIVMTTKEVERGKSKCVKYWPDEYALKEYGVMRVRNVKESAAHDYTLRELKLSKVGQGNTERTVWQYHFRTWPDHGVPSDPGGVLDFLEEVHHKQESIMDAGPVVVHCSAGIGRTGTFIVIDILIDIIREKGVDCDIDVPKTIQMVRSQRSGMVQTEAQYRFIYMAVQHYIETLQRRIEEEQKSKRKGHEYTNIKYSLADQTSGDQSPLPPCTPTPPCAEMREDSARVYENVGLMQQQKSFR
SHP2 is allosterically activated through binding of bis-tyrosyl-phorphorylated peptides to its Src Homology 2 (SH2) domains. The latter activation step leads to the release of the auto-inhibitory interface of SHP2, which in turn renders the SHP2 protein tyrosine phosphatase (PTP) active and available for substrate recognition and reaction catalysis. The catalytic activity of SHP2 was monitored using the surrogate substrate DiFMUP in a prompt fluorescence assay format.
More specifically, the phosphatase reactions were performed at room temperature in 96-well black polystyrene plate, flat bottom, low flange, non-binding surface (Corning, Cat #3575) using a final reaction volume of 50 μl and the following assay buffer conditions: 60 mM HEPES, pH 7.2, 75 mM NaCl, 75 mM KCl, 1 mM EDTA 0.005% Brij-35, 5 mM DTT.
The inhibition of SHP2 by compounds of the disclosure (concentrations varying from 0.003-100 μM) was monitored using an assay in which 0.25 nM of SHP2 was incubated with of 0.5 μM of peptide IRSl_pY1172(dPEG8)pY1222 (sequence: H2N-LN(pY)IDLDLV(dPEG8)LST(pY)ASINFQK-amide). After 30-60 minutes incubation at 25° C. the surrogate substrate DiFMUP (Invitrogen, cat #D6567, 100 μM final) was added to the reaction and the conversion of DiFMUP to 6,8-difluoro-7-hydroxyl-4-methylcoumarin (DiFMU) was monitored continuously for 10 minutes with excitation at 355 nm and emission at 460 nm using a microplate reader (PolarStar, BMG). The inhibitor dose response curves were analyzed using normalized IC50 regression curve fitting with control based normalization.
Biochemical assay results for compounds of the disclosure are shown in examples and Table 1. In Table 1, A means an IC50 of less than 1 μM: B means an IC50 equal to 1 μM but less than 10 μM; and C means an IC50 of 10 μM or more.
The compound `CN(c1cnc2c(-c3cccc(Cl)c3F)n[nH]c2n1)[C@H]1CCC[C@H]1N` (mixture of isomers) [Example 1] displayed an IC50 of 1000 to 10000 nM. `N[C@@H]1CCCC[C@H]1Nc1cnc2c(-c3cccc(Cl)c3F)n[nH]c2n1` (mixture of isomers) [Example 5] displayed a half-inhibitory concentration (IC50) of 1000 to 10000 nM. With `NC[C@H]1CCCC[C@H]1Nc1cnc2c(-c3cccc(Cl)c3F)n[nH]c2n1` (mixture of isomers) [Example 13] the figure was below 1000 nM.

Regarding `NC[C@H]1CCCC[C@@H]1Nc1cnc2c(-c3cccc(Cl)c3F)n[nH]c2n1` (mixture of isomers) [Example 14], the IC50 is below 1000 nM. With `CN(c1cnc2c(-c3cccc(Cl)c3F)n[nH]c2n1)[C@H]1CCCC[C@@H]1N` (mixture of isomers) [Example 19] the figure was below 1000 nM; with `CN(c1cnc2c(-c3cccc(Cl)c3F)n[nH]c2n1)[C@H]1CCCC[C@H]1N` (mixture of isomers) [Example 20], below 1000 nM. The result for `N[C@@H]1CCCC[C@@H]1Nc1cnc2c(-c3cccc(Cl)c3F)n[nH]c2n1` (single isomer, unassigned) [Example 7] reads 1000 to 10000 nM. As to `CN(c1cnc2c(N3CCCc4ncccc43)n[nH]c2n1)[C@@H]1CCC[C@@H]1N` (single isomer, unassigned) [Example 8], the IC50 lay in the range of 1000 to 10000 nM. The result for `CN(c1cnc2c(N3CCCc4ncccc43)n[nH]c2n1)[C@@H]1COC[C@@H]1N` (single isomer, unassigned) [Example 10] reads at least 10000 nM; that for `CN(c1cnc2c(N3CCCc4ncccc43)n[nH]c2n1)[C@H]1COC[C@H]1N` (single isomer, unassigned) [Example 11], at least 10000 nM; that for `NC[C@@H]1CCCC[C@@H]1Nc1cnc2c(-c3cccc(Cl)c3F)n[nH]c2n1` (single isomer, unassigned) [Example 15], below 1000 nM. Take `NC[C@H]1CCCC[C@H]1Nc1cnc2c(-c3cccc(Cl)c3F)n[nH]c2n1` (single isomer, unassigned) [Example 17]: the IC50 fell in the range of 1000 to 10000 nM.

In the case of `NC[C@@H]1CCCC[C@H]1Nc1cnc2c(-c3cccc(Cl)c3F)n[nH]c2n1` (single isomer, unassigned) [Example 18], the IC50 lay in the range of 1000 to 10000 nM. Take `CN(c1cnc2c(-c3cccc(Cl)c3F)n[nH]c2n1)[C@H]1CCCC[C@@H]1N` (single isomer, unassigned) [Example 23]: the IC50 was in the range of 1000 to 10000 nM. With `CN(c1cnc2c(-c3cccc(Cl)c3F)n[nH]c2n1)[C@@H]1CCCC[C@H]1N` (single isomer, unassigned) [Example 24] the figure was below 1000 nM; with `CN(c1cnc2c(-c3cccc(Cl)c3F)n[nH]c2n1)[C@@H]1CCC[C@@H]1CN` (single isomer, unassigned) [Example 26], below 1000 nM; with `CN(c1cnc2c(-c3cccc(Cl)c3F)n[nH]c2n1)[C@H]1CCC[C@@H]1CN` (single isomer, unassigned) [Example 27], below 1000 nM. The result for `CN(c1cnc2c(-c3cccc(Cl)c3F)n[nH]c2n1)[C@H]1CCC[C@H]1CN` (single isomer, unassigned) [Example 28] reads below 1000 nM; that for `CN(c1cnc2c(-c3cccc(Cl)c3F)n[nH]c2n1)[C@@H]1CCC[C@H]1CN` (single isomer, unassigned) [Example 29], below 1000 nM; that for `CN(C[C@@H]1CCC[C@H]1N)c1cnc2c(N3CCCc4ncccc43)n[nH]c2n1` (single isomer, unassigned) [Example 31], at least 10000 nM. With `CN(C[C@H]1CCC[C@@H]1N)c1cnc2c(N3CCCc4ncccc43)n[nH]c2n1` (single isomer, unassigned) [Example 32] the figure was at least 10000 nM. Consider `CN(c1cnc2c(N3CCCc4ncccc43)n[nH]c2n1)[C@@H]1CCCC[C@@H]1N` (single isomer, unassigned) [Example 34], for which the IC50 is 1000 to 10000 nM. In the case of `CN(c1cnc2c(-c3cccc(Cl)c3F)n[nH]c2n1)[C@@H]1CCC[C@H]1N` [Example 2], the IC50 is below 1000 nM. As for `CN(c1cnc2c(-c3cccc(Cl)c3F)n[nH]c2n1)[C@H]1CCC[C@@H]1N` [Example 3], the IC50 is below 1000 nM. For the compound `CN(c1cnc2c(-c3cccc(Cl)c3F)n[nH]c2n1)[C@@H]1CCC[C@@H]1N` [Example 4], the IC50 was below 1000 nM.

Take `N[C@H]1CCCC[C@@H]1Nc1cnc2c(-c3cccc(Cl)c3F)n[nH]c2n1` [Example 6]: the IC50 is 1000 to 10000 nM. With `CN(c1cnc2c(N3CCCc4ncccc43)n[nH]c2n1)[C@H]1CCC[C@H]1N` [Example 9] the figure was at least 10000 nM. The result for `CN(c1cnc2c(-c3cccc(Cl)c3F)n[nH]c2n1)[C@@H]1CCCC[C@@H]1N` [Example 21] reads below 1000 nM. With `CN(C[C@H]1CC[C@H](N)C1)c1cnc2c(-c3cccc(Cl)c3F)n[nH]c2n1` [Example 25] the figure was below 1000 nM; with `CN(c1cnc2c(-c3ccnc(Cl)c3F)n[nH]c2n1)[C@@H]1CCCC[C@@H]1N` [Example 30], below 1000 nM. On to `CN(c1cnc2c(N3CCCc4ncccc43)n[nH]c2n1)[C@H]1CCCC[C@H]1N` [Example 33], for which the IC50 was at least 10000 nM. With `CN(c1cnc2c(N3CCCc4ncccc43)n[nH]c2n1)[C@@H]1COCC[C@@H]1N` [Example 35] the figure was at least 10000 nM; with `CN(c1cnc2c(N3CCCc4ncccc43)n[nH]c2n1)[C@@H]1CCOC[C@@H]1N` [Example 36], 1000 to 10000 nM; with `CN(c1cnc2c(N3CCCc4ncccc43)n[nH]c2n1)[C@H]1CCOC[C@H]1N` [Example 37], at least 10000 nM.

For the compound `CN(c1cnc2c(-c3cccc(Cl)c3F)n[nH]c2n1)[C@@H]1CCCC[C@H]1CN` [Example 38], the IC50 was below 1000 nM. For `CN(c1cnc2c(-c3cccc(Cl)c3F)n[nH]c2n1)[C@H]1CCCC[C@H]1CN` [Example 39], the IC50 was below 1000 nM. The result for `CN(c1cnc2c(-c3cccc(Cl)c3F)n[nH]c2n1)[C@H]1CCCC[C@@H]1CN` [Example 40] reads below 1000 nM; that for `CN(c1cnc2c(-c3cccc(Cl)c3F)n[nH]c2n1)[C@@H]1CCCC[C@@H]1CN` [Example 41], below 1000 nM.

`CN(c1cnc2c(Sc3ccccc3Cl)n[nH]c2n1)[C@@H]1CCCC[C@@H]1N` [Example 42]: the IC50 is below 1000 nM. With `CN(c1cnc2c(Sc3ccnc4[nH]ccc34)n[nH]c2n1)[C@@H]1CCCC[C@@H]1N` [Example 43] the figure was below 1000 nM. The result for `CN(c1cnc2c(Oc3ccnc(Cl)c3Cl)n[nH]c2n1)[C@H]1CCCC[C@H]1N` [Example 44] reads 1000 to 10000 nM; that for `CN(c1cnc2c(Oc3ccnc(Cl)c3Cl)n[nH]c2n1)[C@@H]1CCCC[C@@H]1N` [Example 45], below 1000 nM; that for `CN(c1cnc2c(N3CCc4c(C(N)=O)cccc43)n[nH]c2n1)[C@@H]1CCCC[C@@H]1N` [Example 46], below 1000 nM.

The term IC50 denotes the midpoint of a concentration-inhibition curve. A low value points to greater potency in that assay.

For the origin of these results see patent publication US11701354B2, “Pyrazolo[3,4-b]pyrazine derivatives as SHP2 phosphatase inhibitors” (Relay Therapeutics, Inc., priority 2017, dated 2023).
